Test results published in article PMC7531004, “Discovery of gramicidin A analogues with altered activities by multidimensional screening of a one-bead-one-compound library” (Nature Communications, 2020).
Where a SMILES comes first, the peptide text is derived from it. [ ]: non-standard residue; d: D form. The star is where a group is joined. NHCH2CH2OH = OCCN*; For = O=C*

Key:
[1] = system: Streptococcus pyogenes SSI-9; assay: Antibacterial activity assay of bead-derived peptides (three concentrations); format: cell-based; parameters: key: +++: inhibition by the 640-fold diluted peptide solution; ++: inhibition by the 160-fold diluted solution; +: inhibition by the 40-fold diluted solution; -: no inhibition; conditions: S. pyogenes, bead-derived peptide solution, three concentrations
Method in brief: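 Undiluted, 4-fold and 16-fold DMSO-diluted peptide stocks; S. pyogenes SSI-9, 2 × 10^5 CFU, cation-adjusted MHB (50 mg/L Ca2+, 25 mg/L Mg2+) + 5% laked horse blood; 37 °C, 18 h; readout = cell pellet visible or not.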

[2] = H+/Na+ transport assay of bead-derived peptides (one-point); format: biochemical; parameters: key: relative activity; mean of two control wells = 1.00; conditions: bead-derived peptide solution, EYPC/EYPG LUVs;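 further: relative to parent gramicidin A activity set to 1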
Method in brief: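 Miniaturized 96-well format. LUVs with entrapped pyranine (1.0 mM) were exposed to peptide for 30 min at RT. Intensities were expressed relative to full lysis by Triton X-100 and no treatment, with control-well mean = 1.00.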

[3] = system: P388 mouse leukemia cells; conditions: 92 h
Method in brief: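 P388 cells at 1 × 10^4 cells/mL (final) were exposed to library peptides (stocks diluted 250-fold in RPMI1640/10% FBS) for 92 h at 37 °C, 5% CO2. Viable cells were counted by WST-1/1-methoxy PMS (4 h), absorbance 415 nm, and expressed as cell viability (%).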

Structure (SMILES)	antibacterial activity [1]	H+/Na+ transport activity normalized against the value of 1 (1.00) [2]	cell viability/% [3] [%]
CC(C)C[C@@H](NC(=O)[C@H](C)NC(=O)CNC(=O)[C@@H](NC=O)C(C)C)C(=O)N[C@@H](C)C(=O)N[C@@H](C(=O)N[C@H](C(=O)N[C@@H](C(=O)N[C@@H](Cc1c[nH]c2ccccc12)C(=O)N[C@@H](C(=O)N[C@@H](Cc1c[nH]c2ccccc12)C(=O)N[C@H](CC(C)C)C(=O)N[C@@H](Cc1c[nH]c2ccccc12)C(=O)N[C@@H](C(=O)N[C@@H](Cc1c[nH]c2ccccc12)C(=O)NCCO)C(C)C)C(C)C)C(C)C)C(C)C)[C@H](C)O [compound 9030] (For-VGA[dL]A[dT]V[dV]W[dV]W[dL]W[dV]W-NHCH2CH2OH)	-	1.12	71.3
CC(C)C[C@@H](NC(=O)[C@H](C)NC(=O)CNC(=O)[C@@H](NC=O)C(C)C)C(=O)N[C@@H](C)C(=O)N[C@@H](C(=O)N[C@H](C(=O)N[C@@H](C(=O)N[C@@H](Cc1c[nH]c2ccccc12)C(=O)N[C@@H](C(=O)N[C@@H](Cc1c[nH]c2ccccc12)C(=O)N[C@H](CC(C)C)C(=O)N[C@@H](Cc1c[nH]c2ccccc12)C(=O)N[C@@H](C(=O)N[C@@H](Cc1c[nH]c2ccccc12)C(=O)NCCO)C(C)C)C(C)C)C(C)C)C(C)C)C(C)C [compound 1289] (For-VGA[dL]A[dV]V[dV]W[dV]W[dL]W[dV]W-NHCH2CH2OH)	+	1.03	95.6
CC(C)C[C@@H](NC(=O)[C@H](C)NC(=O)[C@H](NC(=O)[C@H](C)NC(=O)CNC(=O)[C@@H](NC=O)C(C)C)[C@H](C)O)C(=O)N[C@H](C(=O)N[C@@H](C(=O)N[C@@H](Cc1c[nH]c2ccccc12)C(=O)N[C@@H](C(=O)N[C@@H](Cc1c[nH]c2ccccc12)C(=O)N[C@H](CC(C)C)C(=O)N[C@@H](Cc1c[nH]c2ccccc12)C(=O)N[C@H](CC(C)C)C(=O)N[C@@H](Cc1c[nH]c2ccccc12)C(=O)NCCO)C(C)C)C(C)C)C(C)C [compound 9112] (For-VGA[dT]A[dL]V[dV]W[dV]W[dL]W[dL]W-NHCH2CH2OH)	-	1.10	72.6
CNC(=O)C[C@@H](NC(=O)[C@@H](NC(=O)[C@@H](CC(C)C)NC(=O)[C@H](C)NC(=O)[C@@H](CC(C)C)NC(=O)[C@H](C)NC(=O)CNC(=O)[C@@H](NC=O)C(C)C)C(C)C)C(=O)N[C@@H](Cc1c[nH]c2ccccc12)C(=O)N[C@@H](C(=O)N[C@@H](Cc1c[nH]c2ccccc12)C(=O)N[C@H](CC(C)C)C(=O)N[C@@H](Cc1c[nH]c2ccccc12)C(=O)N[C@H](CC(C)C)C(=O)N[C@@H](Cc1c[nH]c2ccccc12)C(=O)NCCO)C(C)C [compound 6703] (For-VGA[dL]A[dL]V[dD](NHMe)W[dV]W[dL]W[dL]W-NHCH2CH2OH)	-	1.17	100.0
CC(C)C[C@@H](NC(=O)[C@H](Cc1c[nH]c2ccccc12)NC(=O)[C@H](NC(=O)[C@H](Cc1c[nH]c2ccccc12)NC(=O)[C@H](NC(=O)[C@H](Cc1c[nH]c2ccccc12)NC(=O)[C@H](NC(=O)[C@@H](NC(=O)[C@H](NC(=O)[C@H](C)NC(=O)[C@H](NC(=O)[C@H](C)NC(=O)CNC(=O)[C@@H](NC=O)C(C)C)C(C)C)C(C)C)C(C)C)C(C)C)C(C)C)C(C)C)C(=O)N[C@@H](Cc1c[nH]c2ccccc12)C(=O)NCCO [compound 10699] (For-VGA[dV]A[dV]V[dV]W[dV]W[dV]W[dL]W-NHCH2CH2OH)	-	1.09	100.0
CC(C)C[C@@H](NC(=O)[C@H](C)NC(=O)CNC(=O)[C@@H](NC=O)C(C)C)C(=O)N[C@@H](C)C(=O)N[C@H](CC(C)C)C(=O)N[C@H](C(=O)N[C@H](CC(C)C)C(=O)N[C@@H](Cc1c[nH]c2ccccc12)C(=O)N[C@H](CC(C)C)C(=O)N[C@@H](Cc1c[nH]c2ccccc12)C(=O)N[C@H](CC(C)C)C(=O)N[C@@H](Cc1c[nH]c2ccccc12)C(=O)N[C@@H](C(=O)N[C@@H](Cc1c[nH]c2ccccc12)C(=O)NCCO)C(C)C)C(C)C [compound 8635] (For-VGA[dL]A[dL]V[dL]W[dL]W[dL]W[dV]W-NHCH2CH2OH)	+	1.05	6.4
CNC(=O)C[C@@H](NC(=O)[C@H](Cc1c[nH]c2ccccc12)NC(=O)[C@@H](CC(C)C)NC(=O)[C@H](Cc1c[nH]c2ccccc12)NC(=O)[C@H](NC(=O)[C@H](Cc1c[nH]c2ccccc12)NC(=O)[C@@H](CC(C)C)NC(=O)[C@@H](NC(=O)[C@H](NC(=O)[C@H](C)NC(=O)[C@H](NC(=O)[C@H](C)NC(=O)CNC(=O)[C@@H](NC=O)C(C)C)C(C)C)C(C)C)C(C)C)C(C)C)C(=O)N[C@@H](Cc1c[nH]c2ccccc12)C(=O)NCCO [compound 11368] (For-VGA[dV]A[dV]V[dL]W[dV]W[dL]W[dD](NHMe)W-NHCH2CH2OH)	-	1.01	61.1
CC(C)C[C@@H](NC(=O)[C@H](C)NC(=O)CNC(=O)[C@@H](NC=O)C(C)C)C(=O)N[C@@H](C)C(=O)N[C@H](CC(C)C)C(=O)N[C@H](C(=O)N[C@@H](C(=O)N[C@@H](Cc1c[nH]c2ccccc12)C(=O)N[C@@H](C(=O)N[C@@H](Cc1c[nH]c2ccccc12)C(=O)N[C@H](CC(C)C)C(=O)N[C@@H](Cc1c[nH]c2ccccc12)C(=O)N[C@@H](C(=O)N[C@@H](Cc1c[nH]c2ccccc12)C(=O)NCCO)C(C)C)C(C)C)C(C)C)C(C)C [compound 4297] (For-VGA[dL]A[dL]V[dV]W[dV]W[dL]W[dV]W-NHCH2CH2OH)	+	1.29	2.3
CC(C)C[C@@H](NC(=O)[C@H](C)NC(=O)CNC(=O)[C@@H](NC=O)C(C)C)C(=O)N[C@@H](C)C(=O)N[C@@H](C(=O)N[C@H](C(=O)N[C@H](CC(C)C)C(=O)N[C@@H](Cc1c[nH]c2ccccc12)C(=O)N[C@@H](C(=O)N[C@@H](Cc1c[nH]c2ccccc12)C(=O)N[C@H](CC(C)C)C(=O)N[C@@H](Cc1c[nH]c2ccccc12)C(=O)N[C@@H](C(=O)N[C@@H](Cc1c[nH]c2ccccc12)C(=O)NCCO)[C@H](C)O)C(C)C)C(C)C)C(C)C [compound 1522] (For-VGA[dL]A[dV]V[dL]W[dV]W[dL]W[dT]W-NHCH2CH2OH)	-	1.03	100.0
CC(C)C[C@@H](NC(=O)[C@H](C)NC(=O)CNC(=O)[C@@H](NC=O)C(C)C)C(=O)N[C@@H](C)C(=O)N[C@@H](C(=O)N[C@H](C(=O)N[C@H](CC(C)C)C(=O)N[C@@H](Cc1c[nH]c2ccccc12)C(=O)N[C@@H](C(=O)N[C@@H](Cc1c[nH]c2ccccc12)C(=O)N[C@@H](C(=O)N[C@@H](Cc1c[nH]c2ccccc12)C(=O)N[C@@H](C(=O)N[C@@H](Cc1c[nH]c2ccccc12)C(=O)NCCO)[C@H](C)O)C(C)C)C(C)C)C(C)C)C(C)C [compound 12984] (For-VGA[dL]A[dV]V[dL]W[dV]W[dV]W[dT]W-NHCH2CH2OH)	-	1.08	81.1
CC(C)C[C@@H](NC(=O)[C@H](C)NC(=O)CNC(=O)[C@@H](NC=O)C(C)C)C(=O)N[C@@H](C)C(=O)N[C@H](CC(C)C)C(=O)N[C@H](C(=O)N[C@H](CC(C)C)C(=O)N[C@@H](Cc1c[nH]c2ccccc12)C(=O)N[C@H](CC(C)C)C(=O)N[C@@H](Cc1c[nH]c2ccccc12)C(=O)N[C@@H](C(=O)N[C@@H](Cc1c[nH]c2ccccc12)C(=O)N[C@H](CC(C)C)C(=O)N[C@@H](Cc1c[nH]c2ccccc12)C(=O)NCCO)C(C)C)C(C)C [compound 646] (For-VGA[dL]A[dL]V[dL]W[dL]W[dV]W[dL]W-NHCH2CH2OH)	+	1.11	0.2
CC(C)C[C@@H](NC(=O)[C@H](Cc1c[nH]c2ccccc12)NC(=O)[C@H](NC(=O)[C@H](Cc1c[nH]c2ccccc12)NC(=O)[C@H](NC(=O)[C@H](Cc1c[nH]c2ccccc12)NC(=O)[C@@H](CC(C)C)NC(=O)[C@@H](NC(=O)[C@H](NC(=O)[C@H](C)NC(=O)[C@H](NC(=O)[C@H](C)NC(=O)CNC(=O)[C@@H](NC=O)C(C)C)C(C)C)C(C)C)C(C)C)C(C)C)[C@H](C)O)C(=O)N[C@@H](Cc1c[nH]c2ccccc12)C(=O)NCCO [compound 2580] (For-VGA[dV]A[dV]V[dL]W[dV]W[dT]W[dL]W-NHCH2CH2OH)	-	1.00	100.0
CC(C)C[C@@H](NC(=O)[C@H](C)NC(=O)CNC(=O)[C@@H](NC=O)C(C)C)C(=O)N[C@@H](C)C(=O)N[C@H](CC(C)C)C(=O)N[C@H](C(=O)N[C@H](CC(C)C)C(=O)N[C@@H](Cc1c[nH]c2ccccc12)C(=O)N[C@@H](C(=O)N[C@@H](Cc1c[nH]c2ccccc12)C(=O)N[C@@H](C(=O)N[C@@H](Cc1c[nH]c2ccccc12)C(=O)N[C@@H](C(=O)N[C@@H](Cc1c[nH]c2ccccc12)C(=O)NCCO)C(C)C)[C@H](C)O)C(C)C)C(C)C [compound 5178] (For-VGA[dL]A[dL]V[dL]W[dV]W[dT]W[dV]W-NHCH2CH2OH)	-	1.22	100.0
